Test results taken from patent US9610268B2, “Trans-aconitic acid compounds and uses thereof for inhibiting phosphodiesterase 7” (Academia Sinica, priority 2013, dated 2017).

How the values were obtained:
PDE7A1 = target: T1, PDE7A1 (Homo sapiens, UniProt Q13946); experiment: PDE7 activity and inhibition assay (HPLC detection of cAMP and AMP); assay type: biochemical; conditions: inhibitor final concentration 0.1 μg/μl; substrate cAMP; 90 minutes
T1 construct: purchased CALBIOCHEM 524751
Protocol: The activity of PDE7A1 was determined in an enzymatic assay as described below, using: • Enzyme: 0.005 U/μl PDE7A1 (Cat.#: 524751, CALBIOCHEM) • Substrate: 0.0008 μg/μl cAMP (Lot.#: BCBF5219V, SIGMA-ALDRICH) • Buffer: 10 mM Tris-HCl, pH 7.5 • Inhibitor as mentioned above: 0.3 μg/μl as a result final concentration 0.1 μg/μl
An example of the enzymatic assay for determining the activity of PDE7A1 is illustrated in FIG. 2. Briefly, substrate (10 μl), PDE7A1 (10 μl), and buffer (10 μl; as a control) were placed in an eppendorf tube in a total volume of 30 μl and immediately (at 0 minute) injected into HPLC (L-7420, HITACHI) and the contents of cAMP and AMP in the reaction mixture were detected at 254 nm under the following conditions:
Solvent: 0.2M NaH2PO4, 25 mM TBA-HS, 15% ACN, pH6
The peak areas of the cAMP and AMP were measured.
90 minutes later, the control mixture was injected again into the HPLC apparatus and the peak areas of cAMP and AMP were measured as described above and compared with that of the initial injection.
Reaction mixtures containing each of the four inhibitors (10 μl) in the same total volume were injected into the HPLC apparatus following the same procedure as described above and the peak areas of cAMP and AMP were measured and compared with that of the control sample. The percentages of inhibition were calculated.

PDE1 = PDE1 activity and inhibition assay (bis-p-nitrophenyl phosphate, OD 405 nm); assay type: biochemical; conditions: inhibitor final concentration 0.125 μg/μl; substrate bis-p-nitrophenyl phosphate
Protocol: The activity of PDE1 was determined in an enzymatic assay as described below, using: • Enzyme: 10 μg/μl PDE1 (Lot.#: SLBD8711V, SIGMA-ALDRICH) • Substrate: 0.001 M Bis-p-nitrophenyl phosphate (Lot.#: 021M5003V, SIGMA-5 ALDRICH) • Buffer: 0.1M Tris-HCl, pH 8.9 • Inhibitor (trans-aconitic acid (TAA), Calycosin, Kaempferol 3-O-rutinoside, and Wogonin): 1 μg/μl (final concentration 0.125 μg/μl)
An example of the enzymatic assay is illustrated in FIG. 1. Briefly, substrate (50 μl) and buffer (200 μl) were placed in a plastic disposable cuvette (Cat.#: BL6224, Basic Life). PDE1 (100 μl) and each of the four inhibitors (50 μl) or the buffer (50 μl) as a control were then added into the cuvette. The total volume of the reaction mixture is 400 μl. After incubating the enzymatic reaction mixture for a suitable period of time, the optical density was detected by a spectrophotometer at a wave length of 405 nm (U-3300, HITACHI). The optical densities of the reaction mixtures containing the inhibitors were compared with that of the control mixture and the percentages of inhibition were calculated.

T1 sequence (Q13946 whole entry): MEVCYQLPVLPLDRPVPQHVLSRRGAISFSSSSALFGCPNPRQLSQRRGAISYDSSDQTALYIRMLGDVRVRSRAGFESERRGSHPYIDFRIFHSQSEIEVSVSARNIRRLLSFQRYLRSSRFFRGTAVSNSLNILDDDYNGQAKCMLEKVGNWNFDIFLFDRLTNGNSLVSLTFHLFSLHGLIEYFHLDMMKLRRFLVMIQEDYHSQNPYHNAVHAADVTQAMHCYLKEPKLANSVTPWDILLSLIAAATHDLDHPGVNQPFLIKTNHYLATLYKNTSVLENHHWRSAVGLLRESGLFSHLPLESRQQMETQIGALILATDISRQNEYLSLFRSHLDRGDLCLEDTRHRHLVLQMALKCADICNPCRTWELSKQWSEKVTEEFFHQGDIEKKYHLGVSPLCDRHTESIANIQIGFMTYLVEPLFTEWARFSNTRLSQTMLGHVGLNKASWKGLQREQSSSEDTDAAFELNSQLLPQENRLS

inhibitory activity against PDE7A1 (percentage of inhibition, FIG. 3) (PDE7A1): specifically inhibits PDE7A1
SMILES: O=C(O)/C=C(\CC(=O)O)C(=O)O [TAA, trans-aconitic acid]
inhibitory activity against PDE1 (percentage of inhibition, FIG. 3) (PDE1): not PDE1
